± gives the expanded uncertainty stated by the source.
Conditions: Crystal; Adiabatic calorimetry

Triple point temperature: 283.55 ± 0.05 K
Structure (SMILES): CCCCn1cc[n+](C)c1.F[P-](F)(F)(F)(F)F [1-butyl-3-methylimidazolium hexafluorophosphate]
